Key:
[1] = biological target: T1, human PPARα (Homo sapiens, UniProt Q07869); experiment: Human PPARα transactivation assay (Gal4/PPAR-LBD, luciferase reporter); assay type: cell-based
T1 construct: expressed in transfected cells
T1 sequence (Q07869 167-468): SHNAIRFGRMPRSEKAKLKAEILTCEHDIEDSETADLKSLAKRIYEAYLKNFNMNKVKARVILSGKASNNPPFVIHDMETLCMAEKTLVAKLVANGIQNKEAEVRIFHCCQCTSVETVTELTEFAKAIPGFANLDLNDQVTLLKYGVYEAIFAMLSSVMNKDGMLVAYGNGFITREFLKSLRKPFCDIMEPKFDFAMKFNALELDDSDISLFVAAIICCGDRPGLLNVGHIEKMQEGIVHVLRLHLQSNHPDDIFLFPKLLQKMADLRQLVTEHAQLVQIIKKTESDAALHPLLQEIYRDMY
Description: In order to examine the activity of Compound CW on PPARα, a transactivation assay was used. Transactivation assays take advantage of the modular domain structure of nuclear receptors. A fusion protein was made between the human or mouse PPAR ligand binding domain (PPAR-LBD) and the yeast Gal4 DNA binding domain (“activator plasmid”). The reporter gene construct consisted of the Gal4 DNA binding element in cis with a luciferase reporter. When an agonist binds the Gal4/PPAR-LBD, the fusion protein binds the Gal4 DNA binding element on the reporter gene resulting in transcription of the firefly luciferase gene. Luciferase oxidizes the substrate luciferin in an ATP-dependent reaction; the amount of light given off is a direct measure of the level of the enzyme and, consequently, of the activity of the ligand binding the PPAR-LBD.
The activator expressing plasmids contained a yeast GAL4 DNA-binding domain fused to the human PPARα ligand binding and hinge domains (a.a. 167-468). The reporter plasmid used was pFRLuc, which has the firefly luciferase gene under the control of a GAL4 UAS containing promoter (Stratagene (La Jolla, Calif.)).
One day prior to transfection, cells were seeded in 24-well plates at a density of 5×10^4-2×10^5 cells/well, depending upon the cell type. Cells were transfected using Lipofectamine 2000 reagent (Invitrogen (Calsbad, Calif.)). […]

[2] = tested on: db/db mice; experiment: Antidiabetic effects in db/db mouse model of type II diabetes (serum chemistry after 2 weeks daily oral dosing); assay type: in vivo
Description: db/db mice have a defect in leptin signaling, leading to hyperphagia, obesity and diabetes. Moreover, unlike ob/ob mice on a C57BL/6J background, db/db mice on a C57BLKS background undergo failure of their insulin-producing pancreatic islet cells, resulting in progression from hyperinsulinemia (associated with peripheral insulin resistance) to hypoinsulinemic diabetes.
Male obese (db/db homozygote) C57BL/Ksola mice approximately 8 weeks of age, were obtained from Jackson Labs (Bar Harbor, Me.) and randomly assigned into groups of 5-7 animals such that the body weights (40-45 g) and serum glucose levels (≧300 mg/dl in fed state) were similar between groups; male lean (db/+ heterozygote) mice served as cohort controls. A minimum of 7 days was allowed for adaptation after arrival. All animals were maintained under controlled temperature (23° C.), relative humidity (50±5%) and light (7:00-19:00), and allowed free access to standard chow (Formulab Diet 5008, Quality Lab Products, Elkridge, Md.) and water.
Mice received daily oral doses of vehicle or Compound CW for 2 weeks. At the end of the treatment period 100 μl of venous blood was withdrawn in a heparinized capillary tube from the retro-orbital sinus for serum chemistry analysis. Mice were in the fed state at the time of blood sampling.

[3] = after 2 weeks of daily oral dosing

| SMILES | Activity on human PPARα (type of agonism) ([1]; Gal4/human PPARα-LBD luciferase transactivation, 24 hours treatment, FIG. 1) | Glucose (serum glucose) ([2]; 100 mg/kg daily oral, 2 weeks, fed state, vehicle control 735 ± 66) [mg/dL] | Effect on blood glucose [2, 3] | Effect on serum triglycerides [2, 3] | Triglycerides ± SEM (serum triglycerides) ([2]; daily oral dosing 2 weeks, fed state, vehicle 221 ± 62) [mg/dL] | Maximal activity in transactivation assay ([1]; positive control, same experiment) |
| --- | --- | --- | --- | --- | --- | --- |
| Cc1cccc(C)c1COc1cccc(C(C)C(=O)O)c1 (racemic) [Compound CW, 2-(3-(2,6-Dimethylbenzyloxy)-phenyl)-2-(R,S)-methylacetic acid] | partial agonist | 171 ± 66 | significant reduction | reduced | 109 ± 13 | – |
| Cc1cccc(Nc2cc(Cl)nc(SCC(=O)O)n2)c1C [Wy-14,643, reference compound] | – | – | – | – | – | ~40,000 RLU |
